We go through eleven compounds from ChEMBL document CHEMBL1201862, “PubChem BioAssay data set” (2004).

Molecules are shown by their SMILES.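 Five compound concentrations were applied to cells in 96-well plates for 48 hours; endpoints were derived by simple linear interpolation of the resulting dose-response curve. GI50 = concentration required for 50% inhibition of growth.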 Activity calls are given as the source filed them. Rule as the data show it: active = GI50 up to about 1.1 µM and inactive = higher. Where only a bound is given, the exact number is not on record here.

Some test systems named below: NCI-H23; SK-MEL-5; U-251; OVCAR-8; COLO 205; UACC-257; UO-31; SF-295; IGROV-1; SR; NCI-H460; KM12; SNB-75; K562; SW-620; SF-539; A549; HT-29; SK-MEL-28.
Common to all, as to experiment: NCI-60 cell line screen, 48 h

With `CCOC(=O)C(NC(=O)CC)(Nc1ccccc1OC)C(F)(F)F` (centres undefined), the GI50 in the assay with NCI-H23, in the assay on SK-MEL-5, with U-251, with OVCAR-8, with COLO 205 and in the assay on UACC-257 was > 100 µM (inactive) each time. Moreover, the GI50 with UO-31, in the assay on SF-295, with IGROV-1, in the assay with SR, in the assay with NCI-H460 and in the assay on KM12 was > 100 µM (inactive) in each case. In addition, the GI50 with SNB-75, in the assay with K562, with SW-620, with SF-539, with A549 and in the assay with HT-29 was > 100 µM (inactive) throughout. In addition, the GI50 in the assay with SK-MEL-28 is > 100 µM (inactive).
In the case of `COc1nc(Cl)c(Cl)c(Cl)n1.COc1nc(Cl)nc(Cl)c1Cl`, the GI50 in the assay on NCI-H23 was 6.71 µM (inactive); in the assay on SK-MEL-5 it was 15.2 µM (inactive); in the assay with U-251 it was 3.78 µM (inactive); in the assay on OVCAR-8 it was 2.89 µM (inactive); with COLO 205, 14.2 µM (inactive); in the assay on UACC-257, 3.83 µM (inactive). The GI50 with UO-31 is 0.893 µM (active); in the assay with SF-295, 7.16 µM (inactive); with IGROV-1, 4.53 µM (inactive); in the assay on SR, 0.09 µM (active); in the assay on NCI-H460 it was 5.6 µM (inactive); with KM12, 0.485 µM (active). In addition, the GI50 was 10.3 µM (inactive) with SNB-75; 0.859 µM (active) with K562; 3.62 µM (inactive) in the assay with SW-620; 9.35 µM (inactive) in the assay on SF-539; 18.1 µM (inactive) in the assay on A549; 6.9 µM (inactive) in the assay on HT-29. Besides, the GI50 with SK-MEL-28 was 14 µM (inactive).
As to `CCOC(=O)c1csc(NC(=O)CCN(CC)CC)n1`, the GI50 in the assay with NCI-H23 was 64.7 µM (inactive); in the assay with SK-MEL-5, 45.8 µM (inactive); in the assay on U-251 it was 81.3 µM (inactive); in the assay with OVCAR-8, 30.7 µM (inactive); with COLO 205 it was 33.8 µM (inactive); in the assay with UACC-257 it was 28.1 µM (inactive). In addition, the GI50 with UO-31 was 35.7 µM (inactive); in the assay with SF-295, > 100 µM (inactive); in the assay with IGROV-1 it was 39.7 µM (inactive); in the assay with SR, 21.9 µM (inactive); in the assay with NCI-H460, > 100 µM (inactive); in the assay with KM12, 23.5 µM (inactive). Moreover, the GI50 in the assay on SNB-75 was 28.1 µM (inactive); in the assay on K562 it was 71 µM (inactive); with SW-620, 27.2 µM (inactive); with SF-539 it was 26.9 µM (inactive); with A549, 55 µM (inactive); with HT-29, 23.8 µM (inactive). Also, in the assay on SK-MEL-28, the GI50 was 27.5 µM (inactive).
For `Oc1cc(CN2COc3ccccc32)c(O)cc1CNC1CCCCC1`, the GI50 was 22.3 µM (inactive) with NCI-H23; 19.3 µM (inactive) with SK-MEL-5; 17.7 µM (inactive) in the assay with U-251; 24 µM (inactive) in the assay with OVCAR-8; 17 µM (inactive) in the assay on COLO 205; 15 µM (inactive) in the assay on UACC-257. The GI50 with UO-31 is 35.4 µM (inactive); in the assay on SF-295, > 100 µM (inactive); in the assay on IGROV-1 it was 32.8 µM (inactive); in the assay on SR, 20.1 µM (inactive); in the assay on NCI-H460, 17.1 µM (inactive); in the assay with KM12, 49.9 µM (inactive). In addition, the GI50 with SNB-75 is 18.8 µM (inactive); in the assay on K562 it was 21.9 µM (inactive); in the assay with SW-620, 35.6 µM (inactive); in the assay on SF-539 it was 19.5 µM (inactive); with A549, > 100 µM (inactive); in the assay on HT-29, 22 µM (inactive). In the assay on SK-MEL-28, the GI50 is 21.8 µM (inactive).
Consider `O=C(O[C@@H](/C=C/c1ccccc1)P1(=O)N(Cc2ccccc2)[C@H]2CCCC[C@@H]2N1Cc1ccccc1)c1ccccc1`, for which the GI50 in the assay with NCI-H23 was 2.96 µM (inactive); in the assay on SK-MEL-5, 1.93 µM (inactive); in the assay with U-251, 2.45 µM (inactive); in the assay with OVCAR-8 it was 4.3 µM (inactive); with COLO 205 it was 1.7 µM (inactive); in the assay with UACC-257, 2.86 µM (inactive). For the same compound, the GI50 was 3.01 µM (inactive) with UO-31; 3.15 µM (inactive) in the assay on SF-295; 4.79 µM (inactive) in the assay with IGROV-1; 2.86 µM (inactive) in the assay on SR; 2.01 µM (inactive) in the assay with NCI-H460; 3.41 µM (inactive) with KM12. For the same compound, the GI50 in the assay on SNB-75 is 5.6 µM (inactive); with K562, 3.47 µM (inactive); with SW-620 it was 3.69 µM (inactive); in the assay with SF-539, 4.57 µM (inactive); with A549, 3.61 µM (inactive); in the assay on HT-29 it was 3.08 µM (inactive). The GI50 with SK-MEL-28 was 7.78 µM (inactive).
In the case of `CCOC(=O)/C(C#N)=C1/SC(C(=O)N/N=C/c2ccc(OC)cc2)=C(N)N1c1ccccc1`, the GI50 was > 100 µM (inactive) in the assay with NCI-H23; 39.4 µM (inactive) in the assay with SK-MEL-5; > 100 µM (inactive) in the assay on U-251; > 100 µM (inactive) in the assay on OVCAR-8; > 100 µM (inactive) in the assay on COLO 205; 59.4 µM (inactive) in the assay on UACC-257. Besides, the GI50 in the assay on UO-31 was > 100 µM (inactive); in the assay with SF-295 it was 16.1 µM (inactive); with IGROV-1 it was 3.1 µM (inactive); with SR, > 100 µM (inactive); with NCI-H460 it was 72.8 µM (inactive); in the assay on KM12, > 100 µM (inactive). Besides, the GI50 in the assay on SNB-75 is 0.318 µM (active); in the assay on K562, 0.205 µM (active); in the assay on SW-620, > 100 µM (inactive); in the assay on SF-539 it was 1.16 µM (inactive); with A549 it was > 100 µM (inactive); with HT-29, 31.3 µM (inactive). Besides, the GI50 with SK-MEL-28 was 35.6 µM (inactive).
As for `CC(=O)OC1COC(Nn2c(=O)[nH]c3ccccc3c2=O)C(OC(C)=O)C1OC(C)=O` (centres undefined), the GI50 in the assay with NCI-H23 was > 100 µM (inactive); in the assay with SK-MEL-5, > 100 µM (inactive); with U-251, > 100 µM (inactive); in the assay with OVCAR-8 it was 86.9 µM (inactive); with COLO 205, > 100 µM (inactive); in the assay on UACC-257, > 100 µM (inactive). For the same compound, the GI50 in the assay on UO-31 is 81.1 µM (inactive); in the assay on SF-295 it was > 100 µM (inactive); in the assay on IGROV-1, > 100 µM (inactive); with SR, > 100 µM (inactive); in the assay on NCI-H460, > 100 µM (inactive); in the assay on KM12, 39.4 µM (inactive). For the same compound, the GI50 was 30.3 µM (inactive) with SNB-75; > 100 µM (inactive) with K562; > 100 µM (inactive) in the assay on SW-620; > 100 µM (inactive) in the assay with SF-539; > 100 µM (inactive) in the assay with A549; > 100 µM (inactive) in the assay on HT-29. The GI50 in the assay on SK-MEL-28 was > 100 µM (inactive).
For the compound `COc1cc2c(cc1OC)C(C)N(C)c1c-2c(OC(C)=O)cc2cc(OC)c(OC)cc12` (centres undefined), the GI50 is 15.4 µM (inactive) with NCI-H23; 4.67 µM (inactive) in the assay with SK-MEL-5; 21.7 µM (inactive) in the assay with U-251; 9.4 µM (inactive) with OVCAR-8; 6.43 µM (inactive) in the assay on COLO 205; 11.1 µM (inactive) in the assay on UACC-257. Besides, the GI50 is 12.1 µM (inactive) with UO-31; 11.8 µM (inactive) with SF-295; 6.38 µM (inactive) with NCI-H460; 14.2 µM (inactive) with KM12; 31 µM (inactive) with SNB-75; 23.4 µM (inactive) in the assay with K562. For the same compound, the GI50 with SW-620 is 23.7 µM (inactive); with SF-539 it was 16 µM (inactive); in the assay on A549, 16.9 µM (inactive); with HT-29, 8.04 µM (inactive); in the assay on SK-MEL-28, 19.9 µM (inactive).
Take `C/N=c1/ssc(=S)n1C(C)C`: the GI50 with NCI-H23 was 12.2 µM (inactive); in the assay with SK-MEL-5, 19.8 µM (inactive); with OVCAR-8, 25.6 µM (inactive); in the assay with COLO 205 it was 16.1 µM (inactive); in the assay on UACC-257, 14.5 µM (inactive); in the assay on UO-31, 37.7 µM (inactive). Further, the GI50 in the assay on SF-295 was 33.9 µM (inactive); in the assay with IGROV-1 it was 17.5 µM (inactive); in the assay with NCI-H460, 24.2 µM (inactive); with KM12, 25.2 µM (inactive); in the assay on SNB-75, 1.11 µM (active); with K562, 3.06 µM (inactive). Further, the GI50 is 4.24 µM (inactive) in the assay with SW-620; 25.8 µM (inactive) in the assay with SF-539; 25.6 µM (inactive) with A549; 3.3 µM (inactive) with HT-29; 1.4 µM (inactive) with SK-MEL-28.
As for `COc1c2c(cc3c1-c1c(cc4c(c1OC)OCO4)C1OC3C(C)C1C)OCO2.COc1cc2c(c(OC)c1OC)-c1c(cc3c(c1OC)OCO3)C1OC2C(C)C1C` (centres undefined), the GI50 in the assay on NCI-H23 was > 100 µM (inactive); with SK-MEL-5, 78 µM (inactive); in the assay with U-251, > 100 µM (inactive); with OVCAR-8, 57 µM (inactive); in the assay on COLO 205, > 100 µM (inactive); in the assay on UACC-257, 73.1 µM (inactive). The GI50 is 94.8 µM (inactive) in the assay with UO-31; 87.1 µM (inactive) in the assay on SF-295; 70.6 µM (inactive) in the assay on IGROV-1; > 100 µM (inactive) with SR; 55.3 µM (inactive) in the assay on NCI-H460; 95.1 µM (inactive) in the assay on KM12. In addition, the GI50 in the assay with SNB-75 is 33 µM (inactive); in the assay on K562 it was 72.8 µM (inactive); in the assay on SW-620, > 100 µM (inactive); in the assay on SF-539, > 100 µM (inactive); in the assay on A549, 97.5 µM (inactive); in the assay with HT-29, 88.7 µM (inactive). Further, in the assay with SK-MEL-28, the GI50 is > 100 µM (inactive).
On to `O=c1c(Cc2c(O)oc3cc(O)ccc3c2=O)c(O)oc2cc(O)ccc12`, for which the GI50 is > 100 µM (inactive) in the assay with NCI-H23; 41.8 µM (inactive) with SK-MEL-5; > 100 µM (inactive) in the assay with U-251; > 100 µM (inactive) in the assay on OVCAR-8; > 100 µM (inactive) with COLO 205; > 100 µM (inactive) with UACC-257. Also, the GI50 in the assay on UO-31 was 31.9 µM (inactive); with SF-295, > 100 µM (inactive); in the assay with IGROV-1, > 100 µM (inactive); in the assay with SR, > 100 µM (inactive); with NCI-H460, > 100 µM (inactive); with SNB-75, 53.5 µM (inactive). For the same compound, the GI50 in the assay with K562 is 64.9 µM (inactive); with SW-620, > 100 µM (inactive); in the assay with SF-539, > 100 µM (inactive); with A549, > 100 µM (inactive); in the assay on HT-29, > 100 µM (inactive); in the assay on SK-MEL-28, > 100 µM (inactive).
